{"source": "ChEMBL document CHEMBL1201862", "about": "“PubChem BioAssay data set” (2004)", "key": {"[1]": {"target": "Voltage-dependent T-type calcium channel subunit alpha-1H (Homo sapiens, UniProt O95180)", "sequence (O95180 whole entry)": "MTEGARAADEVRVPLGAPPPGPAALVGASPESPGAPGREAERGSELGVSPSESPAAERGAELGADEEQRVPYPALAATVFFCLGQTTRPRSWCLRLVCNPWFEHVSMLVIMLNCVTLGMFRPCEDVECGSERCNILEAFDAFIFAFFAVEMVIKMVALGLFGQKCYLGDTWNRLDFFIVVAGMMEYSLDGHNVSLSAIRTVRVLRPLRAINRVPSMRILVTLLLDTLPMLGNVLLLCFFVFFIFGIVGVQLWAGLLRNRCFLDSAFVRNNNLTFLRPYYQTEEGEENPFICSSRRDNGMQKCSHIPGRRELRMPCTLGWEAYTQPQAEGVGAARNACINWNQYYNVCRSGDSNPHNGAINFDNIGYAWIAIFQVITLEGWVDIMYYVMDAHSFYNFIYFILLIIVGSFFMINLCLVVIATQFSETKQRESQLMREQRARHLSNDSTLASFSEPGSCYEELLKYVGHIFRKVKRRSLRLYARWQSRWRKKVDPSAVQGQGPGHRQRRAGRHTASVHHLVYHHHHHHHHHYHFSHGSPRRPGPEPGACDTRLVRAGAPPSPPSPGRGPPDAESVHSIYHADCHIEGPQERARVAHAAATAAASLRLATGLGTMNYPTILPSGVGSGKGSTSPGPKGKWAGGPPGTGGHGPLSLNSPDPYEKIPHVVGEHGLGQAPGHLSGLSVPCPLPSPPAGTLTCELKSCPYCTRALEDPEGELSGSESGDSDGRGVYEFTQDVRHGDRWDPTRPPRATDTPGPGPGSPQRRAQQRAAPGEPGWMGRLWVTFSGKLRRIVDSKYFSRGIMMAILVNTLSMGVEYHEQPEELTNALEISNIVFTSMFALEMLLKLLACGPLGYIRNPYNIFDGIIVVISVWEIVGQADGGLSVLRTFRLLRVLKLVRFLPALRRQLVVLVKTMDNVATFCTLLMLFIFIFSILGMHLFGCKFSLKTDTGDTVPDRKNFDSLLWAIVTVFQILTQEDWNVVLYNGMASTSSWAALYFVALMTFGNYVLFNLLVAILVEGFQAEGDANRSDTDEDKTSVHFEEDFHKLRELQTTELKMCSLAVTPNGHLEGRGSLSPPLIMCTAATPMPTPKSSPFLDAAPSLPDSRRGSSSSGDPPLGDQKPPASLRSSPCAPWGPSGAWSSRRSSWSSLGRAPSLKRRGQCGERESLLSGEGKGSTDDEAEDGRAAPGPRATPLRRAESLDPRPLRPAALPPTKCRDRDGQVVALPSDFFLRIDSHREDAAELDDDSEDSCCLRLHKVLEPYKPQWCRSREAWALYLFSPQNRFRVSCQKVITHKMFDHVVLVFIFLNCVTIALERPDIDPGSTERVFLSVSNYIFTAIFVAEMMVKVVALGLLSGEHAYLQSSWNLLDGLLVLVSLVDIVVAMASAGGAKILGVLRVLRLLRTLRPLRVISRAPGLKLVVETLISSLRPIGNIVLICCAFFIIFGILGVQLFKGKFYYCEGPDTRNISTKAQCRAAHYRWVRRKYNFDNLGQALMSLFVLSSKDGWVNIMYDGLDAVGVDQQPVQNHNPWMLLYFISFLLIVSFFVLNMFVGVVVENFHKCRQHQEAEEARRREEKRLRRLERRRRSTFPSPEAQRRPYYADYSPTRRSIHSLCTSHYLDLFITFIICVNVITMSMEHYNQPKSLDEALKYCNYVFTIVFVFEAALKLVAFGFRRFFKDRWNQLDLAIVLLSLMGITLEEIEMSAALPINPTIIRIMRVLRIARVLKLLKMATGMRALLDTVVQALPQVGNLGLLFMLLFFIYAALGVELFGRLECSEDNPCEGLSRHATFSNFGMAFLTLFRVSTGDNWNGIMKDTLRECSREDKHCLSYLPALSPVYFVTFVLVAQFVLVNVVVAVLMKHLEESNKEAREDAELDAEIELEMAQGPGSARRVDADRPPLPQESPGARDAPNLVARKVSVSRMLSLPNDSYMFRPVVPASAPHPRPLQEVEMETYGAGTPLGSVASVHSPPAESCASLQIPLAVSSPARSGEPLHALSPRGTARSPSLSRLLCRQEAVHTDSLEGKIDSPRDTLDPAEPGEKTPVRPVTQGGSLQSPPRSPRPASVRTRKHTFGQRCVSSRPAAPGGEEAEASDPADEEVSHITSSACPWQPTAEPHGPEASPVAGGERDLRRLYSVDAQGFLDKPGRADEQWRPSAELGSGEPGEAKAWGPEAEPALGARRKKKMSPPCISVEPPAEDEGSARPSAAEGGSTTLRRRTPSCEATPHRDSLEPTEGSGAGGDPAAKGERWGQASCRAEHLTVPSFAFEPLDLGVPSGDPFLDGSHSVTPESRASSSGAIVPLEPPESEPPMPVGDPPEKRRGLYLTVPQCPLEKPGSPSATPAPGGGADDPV", "assay_type": "functional"}, "cells": {"test": "cells", "assay_type": "functional"}, "[2]": {"system": "Streptococcus sp. 'group A'", "test": "growth inhibition of control SK(-) GAS strain, dose response, counter-screen for streptokinase expression inhibitor project, luminescence, kanamycin, BacTiterGlo, confirmation (AID 1900)", "assay_type": "functional, organism-based"}, "[3]": {"test": "Vero E6 cell cytotoxicity, dose response, cytotoxicity control for non-replicating M. tuberculosis project, secondary assay (AID 492998)", "assay_type": "functional, VeroE6", "conditions": "Vero C1008"}, "[4]": {"test": "HepG2 cell cytotoxicity, dose response, cytotoxicity control for non-replicating M. tuberculosis project (AID 489018)", "assay_type": "functional", "conditions": "Mycobacterium tuberculosis"}, "Streptococcus": {"system": "Streptococcus", "test": "Group A Streptococcus viability loss, dose response, counter-screen for streptokinase expression inhibitor project, luminescence, BacTiterGlo (AID 1915);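 further: potency for reduction of bacterial viability or growth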", "assay_type": "functional, organism-based"}, "[5]": {"test": "THP-1 cell cytotoxicity, dose response, cytotoxicity control for non-replicating M. tuberculosis project (AID 489025)", "assay_type": "functional"}, "Bcl-2-like protein 10": {"target": "T1, Bcl-2-like protein 10 (Homo sapiens, UniProt Q9HD36)", "T1 sequence (Q9HD36 whole entry)": "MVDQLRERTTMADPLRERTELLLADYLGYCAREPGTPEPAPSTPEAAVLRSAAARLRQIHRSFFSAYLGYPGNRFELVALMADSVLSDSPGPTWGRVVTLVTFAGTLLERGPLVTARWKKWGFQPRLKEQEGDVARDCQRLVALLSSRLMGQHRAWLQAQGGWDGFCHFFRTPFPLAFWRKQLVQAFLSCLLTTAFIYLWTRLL", "test": "displacers of TR3 peptide from Bcl-B, primary screen, selectivity assay for Bfl-1 inhibitor project, biochemical, fluorescence polarization, FITC-TR3 peptide (AID 748);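 further: fluorescence polarization from a fluorescein-labelled TR3 peptide binding purified Bcl-B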"}, "[6]": {"target": "T2, E3 ubiquitin-protein ligase XIAP (Homo sapiens, UniProt P98170)", "T2 sequence (P98170 whole entry)": "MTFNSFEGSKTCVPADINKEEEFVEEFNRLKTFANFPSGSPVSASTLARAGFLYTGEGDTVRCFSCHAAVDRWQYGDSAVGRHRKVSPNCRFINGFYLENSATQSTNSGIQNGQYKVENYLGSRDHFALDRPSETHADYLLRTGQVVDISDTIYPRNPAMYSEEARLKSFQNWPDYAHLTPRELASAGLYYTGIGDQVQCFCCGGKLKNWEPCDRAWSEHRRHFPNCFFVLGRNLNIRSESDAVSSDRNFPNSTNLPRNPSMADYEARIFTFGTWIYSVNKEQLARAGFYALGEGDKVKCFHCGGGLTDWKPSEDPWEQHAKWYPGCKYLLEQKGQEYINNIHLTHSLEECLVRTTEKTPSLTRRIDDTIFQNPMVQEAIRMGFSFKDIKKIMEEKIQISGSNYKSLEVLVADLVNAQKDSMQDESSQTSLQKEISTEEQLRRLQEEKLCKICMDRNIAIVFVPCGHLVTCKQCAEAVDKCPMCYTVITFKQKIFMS", "test": "XIAP antagonists, biochemical, IAP family, fluorescence polarization (AID 1018)", "assay_type": "functional"}, "[7]": {"target": "T2, E3 ubiquitin-protein ligase XIAP", "test": "Counter Screen using XIAP-Bir3 for Chemical Antagonists of Bir1/2 domains of IAP-family anti-apoptotic proteins. [Related pubchem assays (depositor defined):AID1018, AID1449, AID1514, AID1638, AID1749, AID1750, AID488957, AID488963]"}, "[8]": {"target": "Peroxisome proliferator-activated receptor gamma/Nuclear receptor coactivator 2 (Homo sapiens, UniProt P37231)", "test": "(§1) TR-FRET dose response biochemical High Throughput Screening assay for agonists of the steroid receptor coactivator 2 (SRC-2) recruitment by the peroxisome proliferator-activated receptor gamma (PPAR gamma): non-selective agonists. [Related pubchem assays: 1297, 1032 ]", "assay_type": "functional"}, "[9]": {"target": "Peroxisome proliferator-activated receptor gamma/Nuclear receptor coactivator 3 (Homo sapiens, UniProt P37231)", "test": "as §1, with “3 (SRC-3)” for “2 (SRC-2)”, “1301 (Confirmation screen.), 1048 (Primary screen.)]” for “1297, 1032 ]”", "assay_type": "functional"}, "[10]": {"target": "Peroxisome proliferator-activated receptor gamma/Nuclear receptor coactivator 1 (Homo sapiens, UniProt P37231)", "test": "as §1, with “1 (SRC-1)” for “2 (SRC-2)”, “assays (depositor defined):AID1300, AID1808, AID504735, AID631]” for “assays: 1297, 1032 ]”", "assay_type": "protein assay"}, "Troponin, cardiac muscle": {"target": "Troponin, cardiac muscle (Homo sapiens, UniProt P19429+P45379+P63316)", "test": "Fluorescence-based biochemical high throughput dose response assay for activators of the calcium sensitivity of cardiac Regulated Thin Filaments (RTF). [Related pubchem assays (depositor defined):AID493008, AID493018, AID504382, AID504383]", "assay_type": "protein-complex assay"}, "[11]": {"test": "inhibitors of firefly luciferase expression or activity, dose response, H4 neuroglioma cells, luminescence (AID 1990)", "assay_type": "functional, cell-based"}, "[12]": {"test": "Luminescence Cell-Based Dose Response HTS to Identify Inhibitors of 5'UTR Stem-Loop Driven Prion Protein mRNA Translation in H4 Neuroglioblastoma Cells. [Related pubchem assays: 1827 (Project Summary), 1813 (Primary HTS)]", "assay_type": "functional"}, "Estrogen receptor": {"target": "T3, Estrogen receptor (Homo sapiens, UniProt P03372)", "T3 sequence (P03372 whole entry)": "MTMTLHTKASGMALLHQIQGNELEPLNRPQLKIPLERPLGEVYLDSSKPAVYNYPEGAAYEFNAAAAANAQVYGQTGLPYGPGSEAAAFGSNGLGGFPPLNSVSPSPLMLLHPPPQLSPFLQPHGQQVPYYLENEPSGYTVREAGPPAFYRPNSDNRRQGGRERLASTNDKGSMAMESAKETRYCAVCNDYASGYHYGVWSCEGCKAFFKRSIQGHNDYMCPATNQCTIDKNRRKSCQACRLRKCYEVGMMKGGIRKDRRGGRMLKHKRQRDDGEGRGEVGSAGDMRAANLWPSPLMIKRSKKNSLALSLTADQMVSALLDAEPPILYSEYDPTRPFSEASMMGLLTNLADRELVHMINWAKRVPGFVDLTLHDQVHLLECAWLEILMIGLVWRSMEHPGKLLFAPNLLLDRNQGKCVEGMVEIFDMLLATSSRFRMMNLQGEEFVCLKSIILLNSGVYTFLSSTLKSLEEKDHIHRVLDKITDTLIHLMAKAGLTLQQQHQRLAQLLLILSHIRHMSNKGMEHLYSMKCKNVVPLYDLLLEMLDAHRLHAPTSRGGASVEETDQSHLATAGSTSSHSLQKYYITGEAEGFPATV"}, "[13]": {"test": "inhibitors of SNCA 5'UTR-driven reporter translation, confirmation, H4 neuroglioma cells, luminescence (AID 1988)", "assay_type": "functional, cell-based"}, "Estrogen receptor beta [14]": {"target": "T4, Estrogen receptor beta (Homo sapiens, UniProt Q92731)", "T4 sequence (Q92731 whole entry)": "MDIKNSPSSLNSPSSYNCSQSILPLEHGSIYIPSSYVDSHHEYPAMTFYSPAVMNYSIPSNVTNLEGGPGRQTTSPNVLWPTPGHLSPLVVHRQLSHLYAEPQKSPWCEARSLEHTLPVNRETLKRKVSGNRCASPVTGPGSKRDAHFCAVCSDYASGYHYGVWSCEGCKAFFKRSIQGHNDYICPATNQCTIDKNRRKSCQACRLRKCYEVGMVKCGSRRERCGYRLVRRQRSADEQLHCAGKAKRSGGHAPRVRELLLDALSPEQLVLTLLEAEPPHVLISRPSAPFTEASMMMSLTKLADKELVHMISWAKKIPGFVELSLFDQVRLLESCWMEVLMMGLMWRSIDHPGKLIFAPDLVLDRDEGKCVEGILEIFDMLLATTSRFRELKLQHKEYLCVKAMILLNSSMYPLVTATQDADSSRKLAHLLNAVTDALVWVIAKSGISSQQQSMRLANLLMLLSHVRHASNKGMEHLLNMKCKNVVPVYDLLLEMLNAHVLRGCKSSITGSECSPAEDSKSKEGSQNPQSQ", "test": "ERβ–SRC-3 coactivator interaction inhibitors, confirmation, orthogonal assay, biochemical, ELISA, streptavidin-HRP readout (AID 1060)"}, "Estrogen receptor beta [15]": {"target": "T4, Estrogen receptor beta"}, "CAAX prenyl protease 2": {"target": "T5, CAAX prenyl protease 2 (Homo sapiens, UniProt Q9Y256)", "T5 sequence (Q9Y256 whole entry)": "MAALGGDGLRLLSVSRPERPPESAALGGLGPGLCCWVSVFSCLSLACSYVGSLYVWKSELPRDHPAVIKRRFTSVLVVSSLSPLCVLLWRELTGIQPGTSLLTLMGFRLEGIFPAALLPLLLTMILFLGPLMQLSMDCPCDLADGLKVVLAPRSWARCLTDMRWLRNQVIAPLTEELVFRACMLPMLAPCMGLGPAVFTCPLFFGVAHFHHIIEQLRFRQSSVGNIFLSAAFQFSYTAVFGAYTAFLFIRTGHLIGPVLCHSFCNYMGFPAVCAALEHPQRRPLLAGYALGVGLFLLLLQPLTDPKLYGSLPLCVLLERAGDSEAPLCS", "test": "human Rce1 protease inhibitors, dose response, biochemical, yeast membranes, quenched-peptide fluorescence, cherry-pick (AID 588849)"}, "Trypsin": {"target": "Trypsin (Sus scrofa, UniProt P00761)", "sequence (P00761 whole entry)": "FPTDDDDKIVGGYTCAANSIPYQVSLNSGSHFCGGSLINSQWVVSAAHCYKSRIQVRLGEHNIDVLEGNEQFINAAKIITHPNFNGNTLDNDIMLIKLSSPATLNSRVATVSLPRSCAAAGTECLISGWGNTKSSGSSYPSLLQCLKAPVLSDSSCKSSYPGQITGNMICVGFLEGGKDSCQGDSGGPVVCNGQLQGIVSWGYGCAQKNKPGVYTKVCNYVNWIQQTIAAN", "test": "porcine trypsin inhibitors, dose response, selectivity assay for Rce1 protease inhibitor project, biochemical, quenched peptide fluorescence, cherry-pick (AID 488789)"}}, "note": "The source made the active and inactive calls.", "data": [{"smiles": "CCOc1ccc(-c2nnc(NC(=O)c3ccc(OCC(C)C)c(OC)c3)o2)cc1", "values": [{"measurement": "EC50", "setting": "[1]", "result": "11.3 µM (active)"}, {"measurement": "IC50", "setting": "cells", "result": "36.7 µM (active)"}, {"measurement": "EC50", "setting": "[2]", "result": "0.354 µM (active)"}, {"measurement": "CC50", "setting": "[3]", "result": "10.1 µM (active)"}, {"measurement": "CC50", "setting": "[4]", "result": "> 20 µM (active)"}, {"measurement": "EC50", "setting": "Streptococcus", "result": "1.76 µM (active)"}, {"measurement": "CC50", "setting": "[5]", "result": "13.8 µM (active)"}]}, {"smiles": "Cc1ccc(S(=O)(=O)NC(=O)c2cc(C)n(CCCn3ccnc3)c2C)cc1", "values": [{"measurement": "IC50", "setting": "Bcl-2-like protein 10", "result": "74 µM (inactive)"}]}, {"smiles": "CCCN(CCC)S(=O)(=O)c1ccc(NS(=O)(=O)c2ccc(F)cc2)cc1", "values": [{"measurement": "EC50", "setting": "[1]", "result": "3.07 µM (active)"}]}, {"smiles": "Cc1cc(=O)oc2cc(OCc3ccc(C(=O)N4CCN(c5ccc([N+](=O)[O-])cc5)CC4)cc3)ccc12", "values": [{"measurement": "IC50", "setting": "[6]", "result": "> 100 µM (not active)"}, {"measurement": "IC50", "setting": "[7]", "result": "> 100 µM (inactive)"}]}, {"smiles": "COC(=O)c1sc(-c2ccccc2)cc1NC(=O)C1CC1", "values": [{"measurement": "EC50", "setting": "[8]", "result": "> 79.4 µM (not active)"}, {"measurement": "EC50", "setting": "[9]", "result": "> 79.4 µM (not active)"}, {"measurement": "EC50", "setting": "[10]", "result": "> 79.4 µM (inactive)"}]}, {"smiles": "Cc1ccc(-c2noc(CSc3nnc(Cc4cccs4)n3-c3ccccc3)n2)cc1", "values": [{"measurement": "EC50", "setting": "[1]", "result": "3.56 µM (active)"}]}, {"smiles": "CCN(CC(=O)Nc1ccccc1C(F)(F)F)C(=O)c1ccc(-n2nc(C)c(CCC(=O)OC)c2C)cc1", "values": [{"measurement": "EC50", "setting": "Troponin, cardiac muscle", "result": "> 71.5 µM (inactive)"}]}, {"smiles": "COc1ccc(Cn2c(=O)[nH]c3cc(C(=O)NCc4ccc5c(c4)OCO5)ccc3c2=O)cc1", "values": [{"measurement": "EC50", "setting": "[11]", "result": "> 120 µM (not active)"}, {"measurement": "EC50", "setting": "[12]", "result": "> 120 µM (not active)"}, {"measurement": "IC50", "setting": "Estrogen receptor", "result": "18.9 µM (active)"}, {"measurement": "EC50", "setting": "[13]", "result": "11 µM (active)"}]}, {"smiles": "CCn1c(=O)cc(SCC(=O)N2CCN(c3ccccc3F)CC2)c2ccccc21", "values": [{"measurement": "EC50", "setting": "[8]", "result": "> 79.4 µM (not active)"}, {"measurement": "EC50", "setting": "[9]", "result": "> 79.4 µM (not active)"}, {"measurement": "EC50", "setting": "[10]", "result": "> 79.4 µM (inactive)"}]}, {"smiles": "CSC1=N/C(=C\\c2ccc(Br)o2)C(=O)S1", "values": [{"measurement": "IC50", "setting": "Estrogen receptor beta [14]", "result": "< 0.023 µM (not active)"}, {"measurement": "IC50", "setting": "Estrogen receptor beta [15]", "result": "8.58 µM (active)"}, {"measurement": "IC50", "setting": "Estrogen receptor", "result": "22.1 µM (active)"}]}, {"smiles": "CC(C)CN(C(=O)COC(=O)c1cc2c(s1)CCC2)C1CCS(=O)(=O)C1", "note": "(centres undefined)", "values": [{"measurement": "IC50", "setting": "Bcl-2-like protein 10", "result": "26.6 µM (active)"}, {"measurement": "IC50", "setting": "Estrogen receptor beta [14]", "result": "1.94 µM (not active)"}, {"measurement": "IC50", "setting": "Estrogen receptor beta [15]", "result": "1.91 µM (active)"}, {"measurement": "IC50", "setting": "Estrogen receptor", "result": "2.95 µM (active)"}]}, {"smiles": "CC1CCN(c2oc(-c3ccc(F)cc3)nc2C#N)CC1", "values": [{"measurement": "AC50", "setting": "CAAX prenyl protease 2", "result": "9.46 µM (active)"}, {"measurement": "AC50", "setting": "Trypsin", "result": "3.18 µM (active)"}]}, {"smiles": "Cc1ccc(NC(=O)CN2C(=O)S/C(=C\\C(=O)Nc3ccc(Cl)cc3)C2=O)cc1", "values": [{"measurement": "IC50", "setting": "[6]", "result": "> 100 µM (not active)"}, {"measurement": "IC50", "setting": "[7]", "result": "> 100 µM (inactive)"}]}]}
